# Assay results as given in patent US20050143450A1, “Alkyl PCDF as a treatment for prostate cancer” (priority 2002, published 2005).
# Like-named read-outs stand apart in the source and are kept apart here.
# How the values were obtained:
# LNCaP cells = assay type: cell-based, human
# Experimental: After trypsinization and low-speed centrifugation, LNCaP cells were resuspended and counted using a Coulter cell counter (Beckman Coulter, Fullerton, Calif.). Cells were seeded at a density of 5×10^4/35-mm well using DME-F12 without phenol red, supplemented with 2.5% charcoal-stripped fetal bovine serum (FBS). Twenty-four hours after seeding, initial treatment was applied and then subsequently reapplied with fresh medium every two days until harvesting by trypsinization. Cells were counted after harvesting using a Coulter counter.
# [1] = tested on: androgen-responsive probasin gene promoter (pPB); assay type: cell-based, human
# Experimental: ZR-75 human breast cancer and LNCaP human prostate cancer cells were obtained from American Type Culture Collection (Manassas, Va.) and were maintained in RPMI 1640 medium supplemented with 10% FBS, 1% antibiotic/antimycotic solution, 1.5 g/L sodium bicarbonate, and 10 mM HEPES, final pH of 7.4. Cells were seeded at 2.75×10^5 per 22-mm well in DME-F12 without phenol red, supplemented with 2.5% charcoal-stripped fetal bovine serum (FBS). After 24 h, cells were transfected using Lipofectamine and Plus reagents (Invitrogen) according to manufacturer's instructions. LNCaP and ZR-75 cells were transfected with 500 ng/well of either reporter plasmid, and 250 ng/well of pcDNA3.1-β-gal (Invitrogen) as the internal control. In addition, ZR-75 cells were transfected with 500 ng hAR. Twenty-four hours after treatment, cells were harvested by scraping with 200 μL/well of reporter lysis buffer. Lysates were centrifuged at 40,000 g and luciferase and β-galactosidase activity was assayed with 30 μL of the supernatant extract per sample using a Lumicount luminometer (PerkinElmer, Boston, Mass.). Luciferase activity was normalized to β-galactosidase activity for each transfection well.
# [2] = tested on: LNCaP prostate cancer cells; assay type: cell-based, human
# Experimental: Cells were analyzed on a FACS Calibur (Becton Dickinson, San Jose, Calif.) flow cytometer, equipped with a 15 mW air-cooled argon laser, using CellQuest (Becton Dickinson) acquisition software. Propidium iodide (PI) fluorescence was collected through a 585/42-nm bandpass filter, and list mode data were acquired on a minimum of 12,000 single cells defined by a dot plot of PI-width versus PI-area. Data analysis was performed in ModFit LT (Verity Software House, Topsham, Me.) using PI-width versus PI-area to exclude cell aggregates.
# The effects of TCDD on cell cycle progression was also determined in LNCaP cells treated with 1.0, 10 and 100 nM TCDD for 48 h followed by FACS analysis (Table 1).
# AhR = target: T1, AhR (Homo sapiens, UniProt P35869); assay: AhR activation, pDRE3 luciferase transient transfection in LNCaP cells; assay type: cell-based
# T1 construct: LNCaP cells were transfected with pDRE3, treated with various compounds and luciferase activity was determined; endogenous in cells; host or cells: LNCaP
# T1 sequence (P35869 11-848): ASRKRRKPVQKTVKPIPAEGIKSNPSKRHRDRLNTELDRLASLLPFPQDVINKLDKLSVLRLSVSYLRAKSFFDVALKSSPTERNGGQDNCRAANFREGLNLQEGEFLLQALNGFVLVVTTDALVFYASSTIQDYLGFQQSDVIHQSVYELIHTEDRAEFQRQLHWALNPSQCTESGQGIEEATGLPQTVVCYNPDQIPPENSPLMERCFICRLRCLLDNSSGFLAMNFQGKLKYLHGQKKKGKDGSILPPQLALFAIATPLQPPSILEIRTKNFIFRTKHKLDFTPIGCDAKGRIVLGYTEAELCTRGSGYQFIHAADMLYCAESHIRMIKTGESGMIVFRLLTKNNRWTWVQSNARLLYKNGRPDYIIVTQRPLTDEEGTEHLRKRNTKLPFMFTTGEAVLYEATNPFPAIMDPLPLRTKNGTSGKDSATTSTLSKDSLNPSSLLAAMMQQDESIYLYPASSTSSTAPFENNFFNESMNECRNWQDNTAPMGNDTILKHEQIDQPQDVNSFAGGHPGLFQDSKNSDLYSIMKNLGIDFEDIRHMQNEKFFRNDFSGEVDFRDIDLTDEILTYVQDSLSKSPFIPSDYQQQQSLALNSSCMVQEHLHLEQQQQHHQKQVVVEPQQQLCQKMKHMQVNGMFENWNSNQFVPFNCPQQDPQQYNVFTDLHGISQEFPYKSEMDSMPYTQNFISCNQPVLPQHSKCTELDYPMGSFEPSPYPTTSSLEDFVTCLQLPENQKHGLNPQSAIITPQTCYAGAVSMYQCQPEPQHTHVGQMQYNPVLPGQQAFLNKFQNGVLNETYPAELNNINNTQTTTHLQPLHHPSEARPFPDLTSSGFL
# Experimental: (§1) After 24 h, cells were transfected using Lipofectamine and Plus reagents (Invitrogen) according to manufacturer's instructions. LNCaP and ZR-75 cells were transfected with 500 ng/well of either reporter plasmid, and 250 ng/well of pcDNA3.1-β-gal (Invitrogen) as the internal control. In addition, ZR-75 cells were transfected with 500 ng hAR. Twenty-four hours after treatment, cells were harvested by scraping with 200 μL/well of reporter lysis buffer. Lysates were centrifuged at 40,000 g and luciferase and β-galactosidase activity was assayed with 30 μL of the supernatant extract per sample using a Lumicount luminometer (PerkinElmer, Boston, Mass.). Luciferase activity was normalized to β-galactosidase activity for each transfection well.
# LNCaP cells were transfected with pDRE3, treated with various compounds and luciferase activity was determined as described in the above Examples.
# AR [3] = target: T2, AR (Homo sapiens, UniProt P10275, T878A); assay type: cell-based; settings: LNCaP, pPB, HPTE 10 μM
# T2 construct: AR protein levels in whole cell lysates were determined by Western blot analysis; endogenous in cells; host or cells: LNCaP
# T2 sequence (P10275 1-920 T878A): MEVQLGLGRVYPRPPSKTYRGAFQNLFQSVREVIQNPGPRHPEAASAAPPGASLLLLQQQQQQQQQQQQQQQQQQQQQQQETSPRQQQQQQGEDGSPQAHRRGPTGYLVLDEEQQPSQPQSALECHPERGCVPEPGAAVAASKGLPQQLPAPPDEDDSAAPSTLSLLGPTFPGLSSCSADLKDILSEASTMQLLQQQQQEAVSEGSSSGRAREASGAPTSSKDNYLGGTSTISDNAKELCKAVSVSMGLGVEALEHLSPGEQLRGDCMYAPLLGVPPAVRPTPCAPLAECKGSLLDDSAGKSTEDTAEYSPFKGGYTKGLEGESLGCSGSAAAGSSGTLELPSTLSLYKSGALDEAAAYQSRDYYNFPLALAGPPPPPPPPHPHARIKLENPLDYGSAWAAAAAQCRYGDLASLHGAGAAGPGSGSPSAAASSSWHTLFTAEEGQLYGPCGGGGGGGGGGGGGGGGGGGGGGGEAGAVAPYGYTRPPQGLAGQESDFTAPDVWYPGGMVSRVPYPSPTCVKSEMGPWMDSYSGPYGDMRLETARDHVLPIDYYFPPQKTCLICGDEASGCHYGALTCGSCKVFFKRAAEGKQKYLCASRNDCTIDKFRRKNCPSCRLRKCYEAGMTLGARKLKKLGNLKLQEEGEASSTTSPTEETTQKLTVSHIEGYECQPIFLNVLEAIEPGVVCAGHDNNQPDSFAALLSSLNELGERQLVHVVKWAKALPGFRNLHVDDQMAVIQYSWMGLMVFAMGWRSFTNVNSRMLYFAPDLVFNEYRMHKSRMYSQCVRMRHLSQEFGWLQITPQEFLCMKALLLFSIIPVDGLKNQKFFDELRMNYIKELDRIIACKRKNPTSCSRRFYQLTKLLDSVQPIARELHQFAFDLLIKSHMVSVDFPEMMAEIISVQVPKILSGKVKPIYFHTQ
# Experimental: as §1
# The transfected cells were then treated with hormone or AhR agonist alone or in combination and luciferase activity was determined as described in the above examples.
# AR [4] = assay: AR protein levels in LNCaP cells by Western blot; assay type: cell-based, human; settings: 6 h
# Experimental: Cells were harvested 6 h after treatment using 200 μL/22-mm well of ice cold lysis buffer (50 mM HEPES, pH 7.5, 500 mM NaCl, 10% (v/v) glycerol, 1% (v/v) Triton-X 100, 1.5 mM MgCl2, 1 mM EGTA) (McDougal et al., 2001). Lysates were centrifuged at 40,000 g, and supernatant was collected as extract. Whole cell extracts (50 μg/sample) were separated by electrophoresis on a tiered 7.5% (top)/12.5% (bottom) SDS-polyacrylamide gel and transferred to PVDF membrane (Bio-Rad, Richmond, Calif.). The membrane was blocked with 5% milk (m/v) in tris-buffered saline 0.05% Tween (TBST). Membranes were incubated with primary antibodies for AR (sc-7305), cyclin D1 (sc-718), or p27 (sc-528) (each from Santa Cruz Biotechnology, Santa Cruz, Calif.) at 1:1000 in 5% milk/TBST for 3 h. Membranes were washed twice in TBST. Horseradish peroxidase (HRP)-conjugated secondary antibodies were applied at 1:5000 in 5% milk/TBST for 1 h. After two TBST washes, PVDF-bounded antibodies were detected using a chemiluminescence kit (Western Lightning, PerkinElmer), ImageTek-H film (American X-Ray and Medical Supply, Rancho Cordova, Calif.) and an autoprocessor (Hope Macro-Med, Warminster, Pa.). Quantitation of the Western blot was performed using a Sharp JX-330 scanner (Sharp, Mahwah, N.J.) and Zero-D software (Scanalytics, Billerica, Mass.).
# AR [5] = target: T2, AR; assay type: cell-based; settings: LNCaP
# Experimental: as §1
# Next, LNCaP cells were transfected with pARR3 construct that contained three tandem (3) copies of the probasin androgen response element. The transfected cells were treated with hormone or AhR agonist alone or in combination and luciferase activity was determined as described in the above examples.
structure (smiles),measurement,setting,value
"C[C@]12CCC(=O)C[C@@H]1CC[C@@H]1[C@@H]2CC[C@]2(C)[C@@H](O)CC[C@@H]12 [DHT, dihydrotestosterone]",hormone-induced cell growth,LNCaP cells,not observed
same,reporter gene activity,[1],did not activate
same,Percent Distribution G0/G1,[2],73.400 ± 1.179%
same,Percent Distribution G2/M,[2],9.433 ± 1.011%
same,Percent Distribution S,[2],17.167 ± 0.296%
same,"cell cycle distribution, difference between solvent (DMSO) and DHT",[2],minimal differences
same,luciferase activity induction compared to solvent control (DMSO),"AhR; pDRE3, 10 nM",did not significantly induce activity
same,effect on 6-MCDF-induced luciferase activity,"AhR; pDRE3, hormone in combination with 6-MCDF",significantly inhibited
"C[C@]12CC[C@@H]3c4ccc(O)cc4CC[C@H]3[C@@H]1CC[C@@H]2O [E2, 17β-estradiol]",reporter gene activity,"[1]; ZR-75 cells, pPB alone",did not activate
C[C@]12CC[C@@H]3c4ccc(O)cc4C[C@@H](CCCCCCCCC[S+]([O-])CCCC(F)(F)C(F)(F)F)[C@H]3[C@@H]1CC[C@@H]2O (stereo partly shown) [ICI 182780],effect on DHT-induced luciferase activity,"AR [3]; cotreatment with 10 nM DHT, MCDF 2 μM",only minimal inhibition
same,effect on E2-induced luciferase activity,AR [3]; cotreatment with 10 nM E2,significantly inhibited
same,AR levels in combination with DHT compared to DHT alone,AR [4],not decreased
same,AR levels in combination with E2 compared to E2 alone,AR [4],not decreased
same,"AR protein levels, compound alone","AR [4]; DHT 10 nM, E2 10 nM, TCDD 10 nM, 6-MCDF 2 μM, HPTE 10 μM",increased
same,effect on DHT-induced luciferase activity,"AR [5]; pARR3, cotreatment with DHT",inhibited
same,effect on E2-induced luciferase activity,"AR [5]; pARR3, cotreatment with E2",inhibited
